Experimental data taken from BindingDB's records for PubMed 2139469 (University of Nebraska, 1990).
Where a name gives a salt, the structure may show the parent alone.

Target: D(1A) dopamine receptor (Bos taurus, UniProt Q95136)
Sequence (Q95136 whole entry): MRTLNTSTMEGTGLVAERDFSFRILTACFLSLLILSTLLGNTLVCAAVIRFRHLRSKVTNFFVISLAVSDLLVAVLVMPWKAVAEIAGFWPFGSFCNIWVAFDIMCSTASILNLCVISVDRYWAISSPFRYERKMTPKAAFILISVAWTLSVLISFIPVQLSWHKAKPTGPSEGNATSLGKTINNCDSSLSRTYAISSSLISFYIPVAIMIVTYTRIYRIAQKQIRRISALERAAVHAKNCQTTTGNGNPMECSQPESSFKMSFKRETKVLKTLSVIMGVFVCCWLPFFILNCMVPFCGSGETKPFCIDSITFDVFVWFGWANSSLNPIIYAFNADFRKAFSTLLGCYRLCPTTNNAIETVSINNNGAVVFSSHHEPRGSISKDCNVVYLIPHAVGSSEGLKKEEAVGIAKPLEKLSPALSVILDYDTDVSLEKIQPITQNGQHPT

Going from `CC[C@@H](CO)NC(=O)[C@@H]1C=C2c3cccc4c3c(cn4C)C[C@H]2N(C)C1` to `CN1[C@@H]2CC[C@H]1CC(OC(=O)[C@H](CO)c1ccccc1)C2` (some centres not stated) [CAS_51-55-8], the Ki rises from 1580 nM to over 10000 nM. The first binds more tightly here.

Compared with `O=c1[nH]c2ccccc2n1CCCN1CCC(n2c(=O)[nH]c3cc(Cl)ccc32)CC1`, `O=C(c1ccc(F)cc1)C1CCN(CCn2c(=O)[nH]c3ccccc3c2=O)CC1` [3-(2-{4-[(4-fluorophenyl)carbonyl]piperidin-1-yl}ethyl)-1,2,3,4-tetrahydroquinazoline-2,4-dione] is 5.2-fold lower in Ki: 2040 nM for the first, 395 nM for the second. The second binds more tightly here.

First: O=C(CCCN1CCC(O)(c2ccc(Cl)cc2)CC1)c1ccc(F)cc1 [4-[4-(4-Chloro-phenyl)-4-hydroxy-piperidin-1-yl]-1-(4-fluoro-phenyl)-butan-1-one;propionate(HCl)]
Second: OCCC1CCN(CC/C=C2/c3ccc(F)cc3Sc3ccc(C(F)(F)F)cc32)CC1 [Lu 12-331]
The Ki of the first is 1100-fold higher: 315 nM for the first, 0.29 nM for the second.

Compared with `CSc1ccc2c(c1)N(CC[C@@H]1CCCCN1C)c1ccccc1S2` [10-[2-(1-Methyl-piperidin-2-yl)-ethyl]-2-methylsulfanyl-10H-phenothiazine (thioridazine)], `CN1CCN2c3ccccc3Cc3ccccc3[C@H]2C1` [MIANSERIN (+)] is 4.2-fold higher in Ki: 75.4 nM for the first, 318 nM for the second. The first binds more tightly here.

First: CN(C)CCCSc1ccccc1NC(=O)/C=C/c1ccccc1 [CINANSERIN]
Second: Cc1ccc(N(CC2=NCCN2)c2cccc(O)c2)cc1 [SMR000059054]
The Ki of the first is lower: 2090 nM for the first, over 10000 nM for the second.

`CCN1CCCC1CNC(=O)c1cc(S(N)(=O)=O)ccc1OC` (configuration not stated) [N-[(1-ethylpyrrolidin-2-yl)methyl]-2-methoxy-5-sulfamoylbenzamide] and `C=CCN1CC[C@]23c4c5ccc(O)c4O[C@H]2C(=O)CC[C@@]3(O)[C@H]1C5` [[17-(2,3-3H-2-propenyl)]-4,5a-epoxy-3,14-dihydroxymorphinan-6-one] cannot be ordered by Ki: over 10000 nM for the first, over 10000 nM for the second.
